These results are taken from patent EP2368895A1, “Ferrocenyl flavonoids” (Centre National de la Recherche Scientifique (CNRS), priority 2010, dated 2011).

For the series, the system named is Murine B16 melanoma cells. Conditions: for IC50: murine B16 melanoma cells, MTT, 48 h exposure time, mean ± SD of 3 determinations.

Experimental: Murine B16 melanoma cells were grown in Dulbecco's modified essential medium (DMEM) containing 2 mM L-glutamine, 10% fetal bovine serum, 100 U/ml penicillin and 100 µg/ml streptomycin (37°C, 5% CO2). Stock solutions of the compounds were prepared in DMSO and further diluted in DMEM at the indicated concentrations with a final DMSO concentration of not exceeding 1%. Exponentially growing cells were plated onto 96-well plates at a density of 5000 cells per well in 200 µl DMEM, and 24 h later the compounds were added for another 48 h. Control wells were exposed to 1% DMSO. Viability was assessed using the MTT (1-(4,5-dimethylthiazol-2-yl)-3,5-diphenyltetrazolium) test and absorbance was read at 562 nm in a microplate reader (BioKinetics Reader, EL340) (Carmichael et al. 1987).

For the substance “6,8-dichloro-2-ferrocenyl-4H-chromen-4-one [Compound 2d]”, the half-maximal inhibitory concentration (IC50) (as a rule, the concentration needed to halve the response being measured) was found to be 12.1 ± 0.4 µM.
Still for that read-out and setting: the result for “6-bromo-2-ferrocenyl-4H-chromen-4-one [Compound 2c]” reads 15.9 ± 0.3 µM.
Consider “(E)-1-(3,5-dichloro-2-hydroxyphenyl)-3-ferrocenylprop-2-en-1-one [Compound 1d]”, for which the cytotoxic activity result is “decrease in cytotoxic activity” and the midpoint of inhibition, the IC50, lay at 73.6 ± 2.6 µM.
On to “(E)-1-(3,5-dibromo-2-hydroxyphenyl)-3-ferrocenylprop-2-en-1-one [Compound 1e]”, for which the cytotoxic activity result was “decrease in cytotoxic activity” and it took 84.2 ± 4.8 µM to reach half-maximal inhibition (IC50).
Substance “(E)-1-(5-bromo-2-hydroxyphenyl)-3-ferrocenylprop-2-en-1-one [Compound 1c]” came in with a concentration for half-maximal inhibition (IC50) of 44.6 ± 2.8 µM.
On the same count and under the same terms, the result for “2-ferrocenyl-4H-chromen-4-one [Compound 2a]” reads 33.9 ± 0.8 µM; that for “6-chloro-2-ferrocenyl-4H-chromen-4-one [Compound 2b]”, 15.6 ± 0.3 µM.
As to “(E)-1-(3,5-difluoro-2-hydroxyphenyl)-3-ferrocenylprop-2-en-1-one [Compound 1f]”, the cytotoxic activity result is “decrease in cytotoxic activity” and the half-maximal inhibitory concentration (IC50) came to 49.4 ± 1.3 µM.
In the case of “(E)-1-(2-hydroxyphenyl)-3-ferrocenylprop-2-en-1-one [Compound 1a]”, the concentration for half-maximal inhibition (IC50) stood at 43.7 ± 1.8 µM.
Same read-out and setting: next, “(E)-1-(5-chloro-2-hydroxyphenyl)-3-ferrocenylprop-2-en-1-one [Compound 1b]”: 29.5 ± 1.8 µM; “6,8-dibromo-2-ferrocenyl-4H-chromen-4-one [Compound 2e]”: 13.7 ± 1 µM; “6,8-difluoro-2-ferrocenyl-4H-chromen-4-one [Compound 2f]”: 18 ± 0.2 µM.
